≈ marks a conversion by molar mass, not a printed value.
Columns and labels:
[1] = tested on: Acinetobacter calcoaceticus; assay: Antimicrobial activity against Acinetobacter calcoaceticus (GC 756); type: functional
[2] = Antimicrobial activity against Citrobacter freundii (GC 2211); type: functional
[3] = target: T1, Dipeptidase 1 (Sus scrofa) (UniProt P22412); assay: Relative hydrolysis to that of imipenem was determined by hog renal dehydropeptidase
T1 sequence (whole entry): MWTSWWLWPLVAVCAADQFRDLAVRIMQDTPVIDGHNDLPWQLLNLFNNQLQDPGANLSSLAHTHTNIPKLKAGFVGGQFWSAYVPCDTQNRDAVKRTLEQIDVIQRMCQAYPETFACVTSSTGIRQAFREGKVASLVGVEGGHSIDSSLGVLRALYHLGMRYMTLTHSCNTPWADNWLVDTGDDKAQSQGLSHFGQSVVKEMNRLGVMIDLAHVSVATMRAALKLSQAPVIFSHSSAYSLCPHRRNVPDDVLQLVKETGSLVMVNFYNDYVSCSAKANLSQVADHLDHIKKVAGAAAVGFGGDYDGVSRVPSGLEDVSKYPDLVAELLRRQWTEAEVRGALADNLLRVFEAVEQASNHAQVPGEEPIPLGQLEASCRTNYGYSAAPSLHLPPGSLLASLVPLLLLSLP

[4] = Antimicrobial activity against Enterococcus faecium (GC 1182); type: functional
[5] = Antimicrobial activity against Enterobacter cloacae (GC 2209); type: functional
[6] = Antimicrobial activity against Enterococcus faecalis (GC 842); type: functional
Escherichia coli [7] = assay: Antimicrobial activity against Escherichia coli (ATCC 25922); type: functional
Escherichia coli [8] = assay: Antimicrobial activity against Escherichia coli (GC 1792); type: functional
Escherichia coli [9] = assay: Antimicrobial activity against Escherichia coli (GC 2205); type: functional
[10] = Antimicrobial activity against Morganella morganii (GC 2213); type: functional
Pseudomonas aeruginosa [11] = assay: Antimicrobial activity against Pseudomonas aeruginosa (ATCC 27853); type: functional
Pseudomonas aeruginosa [12] = assay: Antimicrobial activity against Pseudomonas aeruginosa (GC 1544 OprD); type: functional
Staphylococcus aureus [13] = assay: Antimicrobial activity against Staphylococcus aureus (ATCC 29213); type: functional
Staphylococcus aureus [14] = assay: Antimicrobial activity against methicillin - resistant Staphylococcus aureus (GC 2220); type: functional
[15] = Antimicrobial activity against Xanthomonas maltophilia (GC 562); type: functional; details: Stenotrophomonas maltophilia
[16] = target: T1, Dipeptidase 1 (Sus scrofa); assay: Relative hydrolysis of compound to that of imipenem was determined by hog renal dehydropeptidase; type: functional
[17] = tested on: Stenotrophomonas maltophilia; assay: The compound was evaluated for the antimicrobial activity against Xanthomonas maltophilia (GC 562); type: functional
Staphylococcus aureus [18] = assay: The compound was evaluated for the antimicrobial activity against Staphylococcus aureus (ATCC 29213); type: functional

SMILES	MIC [1] [µg/mL]	MIC [2] [µg/mL]	Relative hydrolysis [3]	MIC [4] [µg/mL]	MIC [5] [µg/mL]	MIC [6] [µg/mL]	MIC (Escherichia coli [7]) [µg/mL]	MIC (Escherichia coli [8]) [µg/mL]	MIC (Escherichia coli [9]) [µg/mL]	MIC [10] [µg/mL]	MIC (Pseudomonas aeruginosa [11]) [µg/mL]	MIC (Pseudomonas aeruginosa [12]) [µg/mL]	MIC (Staphylococcus aureus [13]) [µg/mL]	MIC (Staphylococcus aureus [14]) [µg/mL]	MIC [15] [µg/mL]	Relative hydrolysis [16]	MIC [17] [µg/mL]	MIC (Staphylococcus aureus [18]) [µg/mL]
CNC[C@H]1OCC[C@H]1SC1=C(C(=O)[O-])N2C(=O)[C@H]([C@@H](C)O)[C@H]2[C@H]1C.[Na+]	4	0.12	10	> 64	≤ 0.06	0.5	≤ 0.06	≤ 0.06	≤ 0.06	0.5	8	32	≤ 0.06	1	> 128			
C[C@@H](O)[C@H]1C(=O)N2C(C(=O)[O-])=C(S[C@@H]3CCO[C@@H]3CN)[C@H](C)[C@H]12.[Na+]	2	≤ 0.06	8.5	64	≤ 0.06	0.5	≤ 0.06	≤ 0.06	≤ 0.06	0.5	8	16	≤ 0.06	1	> 128			
C[C@H](N)C(=O)N[C@@H](C)C(=O)NC[C@H]1OCC[C@H]1SC1=C(C(=O)[O-])N2C(=O)[C@H]([C@@H](C)O)[C@H]2[C@H]1C.[Na+]	32	8	13	> 128	2	4	≤ 0.06	≤ 0.06	0.12	2	64	> 128	1	64	> 128			
C[C@@H](N)C(=O)NC[C@H]1OCC[C@H]1SC1=C(C(=O)[O-])N2C(=O)[C@H]([C@@H](C)O)[C@H]2[C@H]1C.[Na+]	8	1	3	> 128	0.25	2	≤ 0.06	0.12	≤ 0.06	1	64	64	≤ 0.06	8	> 128			
CCN1CCN(C(=O)NCC2CC(SC3=C(C(=O)[O-])N4C(=O)[C@H]([C@@H](C)O)[C@H]4[C@H]3C)CO2)C(=O)C1=O.[Na+] (stereo partly specified)	128	32	13	> 128	8	16	2	4	0.25	16	> 128	128	0.5	32	> 128			
C[C@H](N)C(=O)NCC1CC(SC2=C(C(=O)[O-])N3C(=O)[C@H]([C@@H](C)O)[C@H]3[C@H]2C)CO1.[Na+] (stereo partly specified)	8	1		> 128	0.25	4	≤ 0.06	≤ 0.06	≤ 0.06	1	32	64	0.12	8	> 128	10		
CC(=O)NCC1CC(SC2=C(C(=O)[O-])N3C(=O)[C@H]([C@@H](C)O)[C@H]3[C@H]2C)CO1.[Na+] (stereo partly specified)	8	2	4	> 128	0.5	8	≤ 0.06	0.12	≤ 0.06	0.5	64	128	0.12	16	> 128			
C[C@@H](O)[C@H]1C(=O)N2C(C(=O)O)=C(SCCNC=N)C[C@H]12 [IMIPENEM ANHYDROUS]	0.25 (≈ 0.835 µM)	0.25 (≈ 0.835 µM)	100	64 (≈ 214 µM)	≤ 0.06	1 (≈ 3.34 µM)	0.12 (≈ 0.401 µM)	≤ 0.06	0.12 (≈ 0.401 µM)	1 (≈ 3.34 µM)	1 (≈ 3.34 µM)	16 (≈ 53.4 µM)	≤ 0.06	1 (≈ 3.34 µM)	> 128			
C[C@@H](O)[C@H]1C(=O)N2C(C(=O)[O-])=C(SC3COC(C/N=C/N)C3)[C@H](C)[C@H]12.[Na+] (stereo partly specified)	2	≤ 0.06		> 128	≤ 0.06	2	≤ 0.06	≤ 0.06	≤ 0.06	0.5	8	16	≤ 0.06	8	> 128			
C[C@H](N)C(=O)NC[C@H]1OCC[C@H]1SC1=C(C(=O)[O-])N2C(=O)[C@H]([C@@H](C)O)[C@H]2[C@H]1C.[Na+]	16	1	12	> 128	0.25	4	≤ 0.06	≤ 0.06	≤ 0.06	1	32	64	0.12	8	> 128			
CC(=O)NC[C@H]1OCC[C@H]1SC1=C(C(=O)[O-])N2C(=O)[C@H]([C@@H](C)O)[C@H]2[C@H]1C.[Na+]	16	2	4	> 128	0.5	8	≤ 0.06	0.12	≤ 0.06	0.5	128	> 128	0.12	16	> 128			
C[C@@H](O)[C@H]1C(=O)N2C(C(=O)[O-])=C(SC3COC(C[N+](C)(C)C)C3)[C@H](C)[C@H]12 (stereo partly specified)	16 (≈ 41.6 µM)	1 (≈ 2.6 µM)		> 128	0.25 (≈ 0.65 µM)	8 (≈ 20.8 µM)	0.25 (≈ 0.65 µM)	0.25 (≈ 0.65 µM)	0.25 (≈ 0.65 µM)	4 (≈ 10.4 µM)	32 (≈ 83.2 µM)	64 (≈ 166 µM)	0.12 (≈ 0.312 µM)	16 (≈ 41.6 µM)	> 128			
C[C@@H](O)[C@H]1C(=O)N2C(C(=O)[O-])=C(SC3COC(CN)C3)[C@H](C)[C@H]12.[Na+] (stereo partly specified)	1	0.06	19	> 128	≤ 0.06	2	≤ 0.06	0.06	≤ 0.06	0.25	4	8		8			> 128	≤ 0.06
CNCC(=O)NCC1CC(SC2=C(C(=O)[O-])N3C(=O)[C@H]([C@@H](C)O)[C@H]3[C@H]2C)CO1.[Na+] (stereo partly specified)	2	0.25		> 128	≤ 0.06	4	≤ 0.06	≤ 0.06	≤ 0.06	0.25	32	32	≤ 0.06	16	> 128			
C[C@@H](O)[C@H]1C(=O)N2C(C(=O)[O-])=C(SC3COC(C/N=C/N(C)C)C3)[C@H](C)[C@H]12.[Na+] (stereo partly specified)	16	0.5		> 128	0.12	8	0.12	0.12	0.12	2	16	32	0.12	16	> 128			
C[C@@H](O)[C@H]1C(=O)N2C(C(=O)[O-])=C(S[C@@H]3CCO[C@@H]3CN(C)C)[C@H](C)[C@H]12.[Na+]	4	0.25	7.5	64	≤ 0.12	1	0.03	0.06	0.06	0.5	16	32	0.06	4	> 128			
C[C@@H](O)[C@H]1C(=O)N2C(C(=O)[O-])=C(S[C@@H]3CCO[C@@H]3C/N=C\N)[C@H](C)[C@H]12.[Na+]	8	0.5	18	> 128	≤ 0.06	2	≤ 0.06	≤ 0.06	0.12	1	16	32	≤ 0.06	4	> 128			

From ChEMBL document CHEMBL1150515, “Synthesis and structure-activity relationships of novel THF 1-methylcarbapenems II” (1997)
